# Measurements published in patent publication US11458203B2, “Pharmaceutical compositions comprising caffeic acid chelates” (Arizona Board of Regents, on behald of Arizona State …, priority 2017, dated 2022).
# pEC50, pIC50: −log10 of the molar value. Where two headings read alike, the source gives them in different places.
# Tests used:
# HSV1 = HSV1 plaque formation assay in Vero cells; format: cell-based; details: for pIC50: read-out: HSV1 IC50; for antiviral activity of the substance by itself (in words): component alone, not combined
# Rhinovirus 14 = format: cell-based
# [1] = system: vaccinia virus (Copenhagen strain); format: cell-based; details: FIG. 6
# HSV2 = HSV2 plaque formation assay in Vero cells; format: cell-based; details: FIG. 6
# Experimental: The antiviral assays were conducted as follows. For HSV1 and HSV2, Vero cells were grown in Dulbecco's minimal essential media containing 10% heat inactivated fetal bovine serum and antibiotic/antimycotic (ThermoFisher) in a 37° C., 5% CO2 incubator. Cells were seeded in standard 6-well tissue culture dishes. HSV1 virus was diluted to 100 plaque forming units/100 μL complete media. The virus samples were treated for 15 minutes with the indicated concentrations of the test compound/material. These treated viral samples were used to infect the confluent Vero cell monolayers. Cells were infected for 1 hour at 37° C. with occasional rocking. After 1 hour, 2 mLs of complete media was added to each well. The test compound was added to the media at the indicated concentration. The dishes were placed in the incubator for 3 days. After 3 days, the media was removed and the cells stained with 0.5% crystal violet. The number of plaques present were counted by hand and graphed as a percent relative to untreated samples.
# Zika virus = format: cell-based; details: at the concentrations tested
# Vero cells = details: African green monkey, 24 h, 27000 μM
# VSV-Ebola pseudotype = format: cell-based, VSV-Ebola pseudotype (Zaire Ebola virus glycoprotein)
# [2] = system: vesicular stomatitis virus (VSV); format: cell-based; details: FIG. 6
# reovirus type 3 = format: cell-based
# [3] = test compound paired with Fe^3+, FIG. 7 and FIG. 8
# [4] = Human alphaherpesvirus 1, Vero, test compound paired with Fe^3+, single dose-response trial, minimum three concentrations, FIG. 7 and FIG. 8
molecule,measurement,setting,value
"O=C(O)C=Cc1ccc(O)cc1O [2,4-dihydroxycinnamic acid]",anti-HSV1 activity (in words),HSV1; [3],inactivity
copper(II),inhibition of plaque formation,"HSV1; inorganic ions in the absence of caffeic acid, 83 μM (highest dose tested), FIG. 2 and FIG. 3",38%
Nc1nc2c(ncn2COCCO)c(=O)[nH]1 [acyclovir],activity relative to the caffeic acid and iron chelates,"HSV1; positive control, FIG. 1 trial",about 20 fold
O=S(=O)(O)c1cc(O)c(O)c(S(=O)(=O)O)c1 [Tiron],anti-HSV1 activity (in words),HSV1; [3],low activity
chicoric acid,"anti-HSV1 activity relative to caffeic acid, molar basis","HSV1; paired with Fe^3+, FIG. 8",a little over triple that of caffeic acid
same,pIC50,"HSV1; test compound paired with Fe^3+, single dose-response trial, minimum three concentrations, FIG. 7 and FIG. 8",4.76
CC(Cc1ccc(O)c(O)c1)C(C)Cc1ccc(O)c(O)c1 (stereo not drawn) [Nordihydroguaiaretic acid],anti-HSV1 activity at highest concentration tested,"HSV1; combined with iron(III), at 330 μM, FIG. 8",no activity
same,anti-HSV1 activity (in words),HSV1; [3],low activity
same,anti-HSV1 activity (in words),"HSV1; test compound paired with Fe^3+, FIG. 7 and FIG. 8, listed as nordihydroguaiaretic acid",no anti-HSV1 activity
"O=C(O)C(O)Cc1ccc(O)c(O)c1 (stereo not drawn) [Danshensu, 3-(3,4-dihydroxyphenyl)-2-hydroxypropanoic acid]",pIC50,"HSV1; Human alphaherpesvirus 1, Vero",4.33
"[Cl][Fe]([Cl])[Cl] [iron(III), iron(III) chloride]",antiviral activity of the substance by itself (in words),HSV1,no antiviral properties
same,antiviral activity of the substance by itself (in words),HSV1; listed as Iron(III),no detectable antiviral activity
"O=C(O)C=Cc1ccc(O)c(O)c1 [caffeic acid, 3,4-dihydroxycinnamic acid]",effect on Rhinovirus (in words),Rhinovirus 14,unaffected
same,effect on vaccinia virus (in words),[1],minimal effect
same,effect on HSV2 (in words),HSV2,minimal effect
same,effect on Zika virus (in words),Zika virus,unaffected
same,cell viability,Vero cells,≥ 90%
same,effect on VSV-Ebola pseudotype (in words),VSV-Ebola pseudotype,minimal effect
same,pEC50,"HSV1; Human alphaherpesvirus 1, Vero, FIG. 1, inorganic ions added at half molar ratio to caffeic acid (2:1 organic:inorganic), caffeic acid alone = average of two separate tests, read-out: HSV1 EC50 (inhibition of plaque formation)",1.73
same,pIC50,HSV1; [4],4.18
same,antiviral activity of the substance by itself (in words),HSV1,weak antiviral properties
same,antiviral activity of the substance by itself (in words),HSV1; listed as Caffeic acid,minimal effect
same,effect on wild type VSV (in words),[2],minimal effect
same,effect on Reovirus (in words),reovirus type 3,unaffected
NCCc1ccc(O)c(O)c1 [dopamine],anti-HSV1 activity (in words),HSV1; [3],low activity
"O=C(O)c1ccc(O)c(O)c1 [3,4-dihydroxybenzoic acid]",anti-HSV1 activity (in words),HSV1; [3],low activity
caffeic acid+sulfate,anti-HSV1 activity compared with caffeic acid alone,"HSV1; FIG. 1, ion at half molar ratio to caffeic acid",no increased activity over caffeic acid alone
"O=C(O)Cc1ccc(O)c(O)c1 [3,4-dihydroxylphenylacetic acid]",pIC50,HSV1; [4],4.00
O=C(/C=C/c1ccc(O)c(O)c1)O[C@H](Cc1ccc(O)c(O)c1)C(=O)O [rosmarinic acid],pIC50,HSV1; [4],4.00
Oc1ccccc1O [catechol],anti-HSV1 activity (in words),HSV1; [3],low activity
